Measurements from patent US6509010B2, “Cosmetic products for the reduction of sweat acidity” (Unilever Home & Personal Care USA, division of Conopco, Inc., priority 2001, dated 2003).
Where two headings read alike, the source gives them in different places.

What was measured:
V-ATPase = experiment: Proton transfer inhibition: intracellular pH recovery after ammonium chloride pulse in isolated, microperfused human eccrine sweat reabsorptive ducts (BCECF-type probe); type: cell-based; conditions: for Inhibition of proton transfer out of the cells of the reabsorptive duct: significant at the 95% level (Student t-test); for Rate of pH recovery (%): control = 100, after 20 mM basolateral ammonium chloride pulse, 37° C.
Experimental: Human eccrine sweat ducts were isolated using the Kealey shearing technique (Lee C. M., Jones C. J., and Kealey T., J. Cell. Sci., 72, 1984, 259-274). Isolated portions of reabsorptive duct were mounted on a conventional microperfusion apparatus, between glass pipettes. One end of the duct was cannulated with a microperfusion pipette. The ducts were perfused at 37° C. with a control solution containing N-methyl-D-glucamine chloride (114 mM), potassium hydrogenphosphate (2.5 mM), magnesium chloride (1 mM), calcium chloride (1 mM), glucose (5 mM), and N-methyl-D-glucamine lactate (4 mM). Osmolality was adjusted to 300 mOsm/kg with mannitol and the pH adjusted to 7.4 with tris-HEPES. Intracellular pH was measured using the pH sensitive fluorescent probe BCEFC (bis-2-carboxyethyl-carbfluorescein) at 5 μM.
[…].
In the next part of the procedure, the indicated sweat ducts were subjected to acidification by a 20 mM basolateral pulse of ammonium chloride, with the additional presence of a V-ATPase inhibitor.

[1] = system: Staphylococcus epidermidis; conditions: 80% or greater reduction in growth over 16 to 24 hours at 37° C., cited from earlier work

V-ATPase, sequence (P27449 whole entry, the tested form may be a part): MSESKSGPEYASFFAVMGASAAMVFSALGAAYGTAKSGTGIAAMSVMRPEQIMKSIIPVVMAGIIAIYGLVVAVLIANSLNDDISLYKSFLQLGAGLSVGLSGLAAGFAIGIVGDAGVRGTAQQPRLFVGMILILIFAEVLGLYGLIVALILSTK

With `CO/C1=C\C(C)=C\[C@@H](C)[C@@H](O)[C@@H](C)C/C(C)=C/C=C/[C@H](OC)[C@@H]([C@@H](C)[C@@H](O)[C@H](C)[C@@]2(O)C[C@@H](O)[C@H](C)[C@@H](C(C)C)O2)OC1=O` [Bafilomycin-A1, bafilomycin A1] the “Inhibition of proton transfer out of the cells of the reabsorptive duct” value (shortened to “Inhibition”) (V-ATPase; at 6.2 μg/ml) was “inhibit proton transfer” and the “Rate of pH recovery (%)” value (V-ATPase; inhibitor at 6.2 μg/ml) was 27%.

For `CCO` [ethanol], the MIC ([1]; stated without source) is listed as “greater than 1 mg.ml^−1”.

With `C/C=C/[C@H]1O[C@@](O)([C@@H](C)[C@H](O)[C@H](C)[C@H]2OC(=O)/C(OC)=C/C(C)=C/[C@@H](C)[C@@H](O)[C@@H](CC)[C@@H](O)[C@H](C)C/C(C)=C/C=C/[C@@H]2OC)C[C@@H](O[C@H]2C[C@@H](O)[C@H](OC(N)=O)[C@@H](C)O2)[C@@H]1C` [Concanamycin-A, concanamycin A] the “Inhibition” value (V-ATPase; at 0.1 μg/ml) was “inhibit proton transfer” and the “Rate of pH recovery (%)” value (V-ATPase; inhibitor at 0.1 μg/ml) was 5%.

With olygomycin the “Inhibition” value (V-ATPase; at 20 μg/ml) was “inhibit proton transfer” and the “Rate of pH recovery (%)” value (V-ATPase; inhibitor at 20 μg/ml) was 12%.

In the case of `CC(C)=CCCC(C)=CCCC(C)=CCO` [farnesol, 3,7,11-trimethyldodeca-2,6,10-trienol], the MIC ([1]; literature values) is given as “ca. 25 μg.ml^−1”.

In the case of `Oc1cc(Cl)ccc1Oc1ccc(Cl)cc1Cl` [triclosan, 2′,4,4′-trichloro,2-hydroxy-diphenyl ether], the MIC ([1]; literature values) is listed as 0.01 to 10 µg/mL.
